In patent publication US20220112515A1, “Method for Producing Virus-Infected Cell Line and Animal Model” (INDUSTRY-ACADEMIC COOPERATION FOUNDATION, YONSEI UNIVERSITY, priority 2018, published 2022):

Legend:
H4-II-E cell line [1] = conditions: HCV mixed with tCA
Description: (§1) For production of enveloped virus-infected cell line models, HBV (1×10^6 copies/ml/well of HBV) isolated in Example 1 above was mixed with 100 μmol/L of taurochenodeoxycholic acid (hereinafter referred to as ‘tCDCA’), and HCV (1×10^6 IU/ml/well of HCV) isolated in Example 1 above was mixed with tCDCA or taurocholic acid (hereinafter referred to as ‘tCA’). Here, tCA was mixed with HCV and used to infect mouse hepatocytes; and tCDCA was used in all other cases.
(§2) A cell line (HepG2, Huh-7, A549, A-498, MDA-MB-231, Jurkat, HeLa, Hepa1c1c7, EL4, H4-II-E, LA-4, LC540, or RAG cell line) at 5×10^6 cells/ml was dispensed into each well of a 6-well plate, and culture was performed for 24 hours. Then, the tCDCA or tCA solution mixed with HBV or HCV was added thereto, and culture was further performed for 24 hours. Here, as a control, a group, to which only HBV or HCV was added without the tCDCA or tCA solution, was used. […] Finally, the cell culture medium was treated with 100 μmol/L of tCDCA or tCA, and culture was further performed for 3 days, thereby producing a virus-infected cell line model (hereinafter referred to as “infected cell line”).
(§3) The levels of HCV core and HCV RNA present were measured in each of the HCV-infected cell lines produced and the culture medium collected therefrom. […]

Hepa1c1c7 cell line [2] = conditions: HCV mixed with tCA (mouse hepatocytes)
Description: as §1, §2, §3

Huh-7 cell line [3] = test: HCV infection of Huh-7 cell line with tCDCA-mixed HCV; assay type: cell-based, human
Method: (§5) The levels of HCV core and HCV RNA present were measured in each of the HCV-infected cell lines produced and the culture medium collected therefrom. Specifically, measurement of HCV RNA was performed by requesting a specialized inspection agency (Biogeno Korea Co., Ltd., Korea) that utilizes the Roche's COBAS TaqMan system. Here, as a control, a group treated with only HCV without a bile acid derivative was used.

H4-II-E cell line [4] = test: HBV infection of H4-II-E cell line with tCDCA-mixed HBV; assay type: cell-based, rat; conditions: HBV mixed with 100 μmol/L tCDCA
Method: (§4) In addition, […] was performed using an anti-HBcAg antibody, to measure a level of HBcAg present. Specifically, 100 μl/well of anti-HBcAg antibody (10E11) (cat no. MA1-7608; Thermo Fisher, USA) was added to a micro ELISA plate, and the reaction was allowed to proceed at 4° C. overnight. Then, 200 μl/well of 1× ELISA/ELISPOT Diluent (Invitrogen, USA) was additionally added thereto, and the reaction was allowed to proceed for 1 hour. Each of the HBV-infected cell lines produced was dispensed into each well, in which the reaction had been completed, and the reaction was allowed to proceed for 2 hours. Then, the anti-HBcAg antibody (10E11) diluted in a ratio of 1:30 with 100 μl of 1× ELISA/ELISPOT Diluent was added to the plate, and the reaction was allowed to proceed for 1 hour. Then, the additional reaction with 100 μl of HRP-conjugated anti-rabbit IgG was allowed to proceed for 30 minutes. Here, as a positive control, PLC/PRF5 cell line (human liver-derived cell line that releases HBV surface antigen) was used, and levels of HBsAg and HBcAg present therein were measured.

HepG2 cell line [5] = test: HCV infection of HepG2 cell line with tCDCA-mixed HCV; assay type: cell-based, human
Jurkat cell line [6] = test: HBV infection of Jurkat cell line with tCDCA-mixed HBV; assay type: cell-based, human; conditions: HBV mixed with 100 μmol/L tCDCA
Method: as §4

HeLa cell line = test: HBV infection of HeLa cell line with tCDCA-mixed HBV; assay type: cell-based, human; conditions: HBV mixed with 100 μmol/L tCDCA
Method: as §4

LC540 cell line [7] = test: HBV infection of LC540 cell line with tCDCA-mixed HBV; assay type: cell-based, rat; conditions: HBV mixed with 100 μmol/L tCDCA
Method: as §4

LC540 cell line [8] = test: HCV infection of LC540 cell line with tCDCA-mixed HCV; assay type: cell-based, rat
Method: as §5

Jurkat cell line [9] = test: HCV infection of Jurkat cell line with tCDCA-mixed HCV; assay type: cell-based, human
Method: as §5

A498 cell line [10] = test: HCV infection of A498 cell line with tCDCA-mixed HCV; assay type: cell-based, human
HepG2 cell line [11] = test: HBV infection of HepG2 cell line with tCDCA-mixed HBV; assay type: cell-based, human; conditions: HBV mixed with 100 μmol/L tCDCA
Method: as §4

RAG cell line = test: HBV infection of RAG cell line with tCDCA-mixed HBV; assay type: cell-based, mouse; conditions: HBV mixed with 100 μmol/L tCDCA
Method: as §4

Huh-7 cell line [12] = test: HBV infection of Huh-7 cell line with tCDCA-mixed HBV; assay type: cell-based, human; conditions: HBV mixed with 100 μmol/L tCDCA
Method: as §4

MDA-MB-231 cell line [13] = test: HBV infection of MDA-MB-231 cell line with tCDCA-mixed HBV; assay type: cell-based, human; conditions: HBV mixed with 100 μmol/L tCDCA
Method: as §4

A549 cell line = test: HCV infection of A549 cell line with tCDCA-mixed HCV; assay type: cell-based, human
A498 cell line [14] = test: HBV infection of A498 cell line with tCDCA-mixed HBV; assay type: cell-based, human; conditions: HBV mixed with 100 μmol/L tCDCA
Method: as §4

MDA-MB-231 cell line [15] = test: HCV infection of MDA-MB-231 cell line with tCDCA-mixed HCV; assay type: cell-based, human
EL4 cell line [16] = test: HCV infection of EL4 cell line with tCDCA-mixed HCV; assay type: cell-based, mouse
Method: as §5

Hepa1c1c7 cell line [17] = test: HBV infection of Hepa1c1c7 cell line with tCDCA-mixed HBV; assay type: cell-based, mouse; conditions: HBV mixed with 100 μmol/L tCDCA
Method: as §4

EL4 cell line [18] = test: HBV infection of EL4 cell line with tCDCA-mixed HBV; assay type: cell-based, mouse; conditions: HBV mixed with 100 μmol/L tCDCA
Method: as §4

With `C[C@H](CCC(=O)NCCS(=O)(=O)O)[C@H]1CC[C@H]2[C@@H]3[C@H](O)C[C@@H]4C[C@H](O)CC[C@]4(C)[C@H]3C[C@H](O)[C@]12C` [tCA, taurocholic acid] the “HCV RNA (IU/ml)” value (H4-II-E cell line [1]) was 197.33 IU/ml and the “HCV RNA (IU/ml)” value (Hepa1c1c7 cell line [2]) was 3430 IU/ml.
For `C[C@H](CCC(=O)NCCS(=O)(=O)O)[C@H]1CC[C@H]2[C@@H]3[C@H](O)C[C@@H]4C[C@H](O)CC[C@]4(C)[C@H]3CC[C@]12C` [tCDCA, taurochenodeoxycholic acid], the “HCV RNA (IU/ml)” value (Huh-7 cell line [3]) was 628.066 IU/ml, the “HBV DNA (copies/ml)” value (H4-II-E cell line [4]) was 73,000 ± 51,929 copies/ml and the “HBsAg (Index)” value (H4-II-E cell line [4]) was 22.73 ± 4.39 Index. For the same molecule, the “HBcAg (Index)” value (H4-II-E cell line [4]; FACS) was 32.6%, the “HCV RNA (IU/ml)” value (HepG2 cell line [5]) was 85.233 IU/ml and the “HBV DNA (copies/ml)” value (Jurkat cell line [6]) was 868,000 ± 88,963 copies/ml. For the same molecule, the “HBsAg (Index)” value (Jurkat cell line [6]) was 1081 ± 329 Index, the “HBcAg (Index)” value (Jurkat cell line [6]; FACS) was 37.5% and the “HBV DNA (copies/ml)” value (HeLa cell line) was 359 copies/ml. For the same molecule, the “HBsAg (Index)” value (HeLa cell line) was 61.35 Index, the “HBcAg (Index)” value (HeLa cell line; FACS) was 89.6% and the “HBV DNA (copies/ml)” value (LC540 cell line [7]) was 149,000 ± 29,866 copies/ml. The “HBsAg (Index)” value (LC540 cell line [7]) was 3.06 ± 0.44 Index, the “HCV RNA (IU/ml)” value (LC540 cell line [8]) was 21.7 IU/ml and the “HCV RNA (IU/ml)” value (Jurkat cell line [9]) was 3326.667 IU/ml. For the same molecule, the “HCV RNA (IU/ml)” value (A498 cell line [10]) was 610 IU/ml, the “HBV DNA (copies/ml)” value (HepG2 cell line [11]) was 3,590,000 ± 1,010,000 copies/ml and the “HBsAg (Index)” value (HepG2 cell line [11]) was 474.70 ± 176.30 Index. For the same molecule, the “HBcAg (Index)” value (HepG2 cell line [11]; FACS) was 61.6%, the “HBV DNA (copies/ml)” value (RAG cell line) was 11,700 (622, 000) copies/ml and the “HBsAg (Index)” value (RAG cell line) was 21 (744) Index. The “HBcAg (Index)” value (RAG cell line; FACS) was 76.6%, the “HBV DNA (copies/ml)” value (Huh-7 cell line [12]) was 89,000 ± 1,836 copies/ml and the “HBsAg (Index)” value (Huh-7 cell line [12]) was 26.02 ± 5.97 Index. For the same molecule, the “HBcAg (Index)” value (Huh-7 cell line [12]; FACS) was 69.8%, the “HBV DNA (copies/ml)” value (MDA-MB-231 cell line [13]) was 116 copies/ml and the “HBsAg (Index)” value (MDA-MB-231 cell line [13]) was 169 Index. For the same molecule, the “HBcAg (Index)” value (MDA-MB-231 cell line [13]; FACS) was 87.4%, the “HCV RNA (IU/ml)” value (A549 cell line) was 4550 IU/ml and the “HBV DNA (copies/ml)” value (A498 cell line [14]) was 73,500 ± 23,292 copies/ml. The “HBsAg (Index)” value (A498 cell line [14]) was 5.12 ± 0.19 Index, the “HBcAg (Index)” value (A498 cell line [14]; FACS) was 67.1% and the “HCV RNA (IU/ml)” value (MDA-MB-231 cell line [15]) was 605 IU/ml. For the same molecule, the “HCV RNA (IU/ml)” value (EL4 cell line [16]) was 1669 IU/ml, the “HBV DNA (copies/ml)” value (Hepa1c1c7 cell line [17]) was 7,036,667 copies/ml and the “HBsAg (Index)” value (Hepa1c1c7 cell line [17]) was 508.26 ± 107.6 Index. The “HBcAg (Index)” value (Hepa1c1c7 cell line [17]; FACS) was 77.1%, the “HBV DNA (copies/ml)” value (EL4 cell line [18]) was 673,000 ± 60,053 copies/ml and the “HBsAg (Index)” value (EL4 cell line [18]) was 192.7 ± 30.60 Index. The “HBcAg (Index)” value (EL4 cell line [18]; FACS) was 66.9%.
